Experimental data: ChEMBL document CHEMBL2375230 (J Med Chem, 2013)
Values after ≈ are worked out from the molar mass of the structure shown. Active and inactive are the calls of the source. The rule behind the calls is not given here.

Columns and labels:
[1] = target: Methionine aminopeptidase 2 (Homo sapiens, UniProt P50579); test: Inhibition of human methionine aminopeptidase 2 in presence of Mn2+
[2] = target: T1, Methionine aminopeptidase 1 (Homo sapiens, UniProt P53582); test: Inhibition of human methionine aminopeptidase 1 in presence of Co2+
[3] = target: T1, Methionine aminopeptidase 1; test: Inhibition of human methionine aminopeptidase 1 in presence of Mn2+
[4] = Antiproliferative activity against HDFa cells after 30 hrs by [3H]-thymidine incorporation assay; format: functional, cell-based, Homo sapiens
HUVEC [5] = test: Antiproliferative activity against HUVEC after 30 hrs by [3H]-thymidine incorporation assay; format: functional, cell-based, Homo sapiens
[6] = target: T1, Methionine aminopeptidase 1; test: Inhibition of human methionine aminopeptidase 1 up to 250 uM
[7] = target: T1, Methionine aminopeptidase 1; test: Inhibition of human methionine aminopeptidase 1 in presence of Zn2+
HeLa [8] = test: Antiproliferative activity against human HeLa cells after 30 hrs by [3H]-thymidine incorporation assay; format: functional, cell-based
HUVEC [9] = test: Antiproliferative activity against HUVEC at 30 uM after 30 hrs by [3H]-thymidine incorporation assay relative to control; format: functional, Homo sapiens
[10] = Solubility of the compound; format: physicochemical
HUVEC [11] = test: Inhibition of methionine aminopeptidase in HUVEC assessed as accumulation of unprocessed 14-3-3gamma at 1 nM after 24 hrs by immunoblotting analysis; format: cell-based; conditions: Homo sapiens
HUVEC [12] = test: Inhibition of methionine aminopeptidase in HUVEC assessed as increase in unprocessed 14-3-3gamma level at 0.1 to 10 uM by immunoblotting analysis; format: cell-based; conditions: Homo sapiens
HUVEC [13] = test: Inhibition of methionine aminopeptidase in HUVEC assessed as increase in unprocessed 14-3-3gamma level at 0.1 to 10 uM by immunoblotting analysis in presence of cycloheximide; format: cell-based; conditions: Homo sapiens
[14] = target: T1, Methionine aminopeptidase 1; test: Inhibition of methionine aminopeptidase 1 in HEK293 cells expressing 3xFLAG-tagged BTF3 assessed as increase in [35S]-Met in solution at 100 nM after 30 mins by scintillation counting analysis; format: cell-based
[15] = Antiproliferative activity against HDFa cells at 30 uM after 30 hrs by [3H]-thymidine incorporation assay relative to control; format: functional, Homo sapiens
HDFa = test: Antiproliferative activity against HDFa cells at 10 uM after 30 hrs by [3H]-thymidine incorporation assay; format: functional, cell-based; conditions: Homo sapiens
HEK293 = test: Inhibition of methionine aminopeptidase in HEK293 cells assessed as increase in ratio of unprocessed 14-3-3gamma to total 14-3-3gamma at 0.1 uM after 24 hrs by immunoblotting analysis relative to DMSO-treated control; format: cell-based; conditions: Homo sapiens
HeLa [16] = test: Inhibition of methionine aminopeptidase in human HeLa cells assessed as increase in ratio of unprocessed 14-3-3gamma to total 14-3-3gamma at 0.1 uM after 24 hrs by immunoblotting analysis relative to DMSO-treated control; format: cell-based
E6-1 = test: Inhibition of methionine aminopeptidase in human Jurkat E6-1 cells assessed as increase in ratio of unprocessed 14-3-3gamma to total 14-3-3gamma at 0.1 uM after 24 hrs by immunoblotting analysis relative to DMSO-treated control; format: cell-based
HUVEC [17] = test: Inhibition of methionine aminopeptidase in HUVEC assessed as accumulation of unprocessed 14-3-3gamma at 10 nM after 24 hrs by immunoblotting analysis; format: cell-based; conditions: Homo sapiens
Homo sapiens = organism: Homo sapiens; test: Inhibition of methionine aminopeptidase in HUVEC assessed as increase in ratio of unprocessed 14-3-3gamma to total 14-3-3gamma at 0.1 uM after 24 hrs by immunoblotting analysis relative to control
MCF7 = test: Inhibition of methionine aminopeptidase in human MCF7 cells assessed as increase in ratio of unprocessed 14-3-3gamma to total 14-3-3gamma at 0.1 uM after 24 hrs by immunoblotting analysis relative to DMSO-treated control; format: cell-based
PC-3 = test: Inhibition of methionine aminopeptidase in human PC3 cells assessed as increase in ratio of unprocessed 14-3-3gamma to total 14-3-3gamma at 0.1 uM after 24 hrs by immunoblotting analysis relative to DMSO-treated control; format: cell-based
HUVEC [18] = test: Cytotoxicity against HUVEC at 10 uM after 24 hrs; format: cell-based; conditions: human

Methionine aminopeptidase 2, sequence (P50579 whole entry): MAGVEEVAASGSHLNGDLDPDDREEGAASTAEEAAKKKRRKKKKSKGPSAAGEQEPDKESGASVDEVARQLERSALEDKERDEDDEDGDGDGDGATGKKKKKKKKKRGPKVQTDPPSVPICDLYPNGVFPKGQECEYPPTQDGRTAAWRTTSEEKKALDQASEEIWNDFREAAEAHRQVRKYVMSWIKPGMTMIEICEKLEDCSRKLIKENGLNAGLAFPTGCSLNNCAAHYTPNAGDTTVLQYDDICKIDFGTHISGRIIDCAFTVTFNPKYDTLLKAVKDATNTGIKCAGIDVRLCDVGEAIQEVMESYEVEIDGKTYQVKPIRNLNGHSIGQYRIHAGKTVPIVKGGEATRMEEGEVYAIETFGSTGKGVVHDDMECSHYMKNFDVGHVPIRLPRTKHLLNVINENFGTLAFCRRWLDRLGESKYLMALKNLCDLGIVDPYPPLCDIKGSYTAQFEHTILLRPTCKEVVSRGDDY

c1ccc(CCNc2nc(-c3ccccn3)nc3ccccc23)cc1
EC50 [1]: > 100 µM
EC50 [2]: 0.94 µM
EC50 [3]: 24 µM

c1ccc(-c2nc(N3CCCCC3)c3ccccc3n2)nc1
EC50 [1]: > 100 µM
EC50 [2]: 0.11 µM
EC50 [3]: 7.6 µM

CN1CCN(c2cc(-c3ccccn3)nc3ccccc23)CC1
EC50 [1]: > 100 µM
EC50 [2]: 0.87 µM
EC50 [3]: > 100 µM

c1ccc2[nH]c(-c3cscn3)nc2c1 [THIABENDAZOLE]
EC50 ([4]; Homo sapiens, HDFa): > 250 µM
EC50 (HUVEC [5]; Homo sapiens, HUVEC): > 250 µM
inhibition [6]: inactive
EC50 [2]: 3.4 µM
EC50 [7]: > 250 µM
EC50 [3]: > 100 µM

CC(C)(C)OC(=O)Nc1cccnc1C(=O)Nc1nccs1
EC50 (HeLa [8]; Homo sapiens, HeLa): 2.3 µM
EC50 (HeLa [8]; hela): 2 µM
EC50 ([4]; Homo sapiens, HDFa): 0.79 µM
EC50 ([4]; hdfa): 0.65 µM
EC50 (HUVEC [5]; Homo sapiens, HUVEC): 2 µM
EC50 (HUVEC [5]; huvec): 1.5 µM

Cc1nc(-c2ccccn2)nc(NCCc2ccccc2)c1Cl
EC50 (HeLa [8]; Homo sapiens, HeLa): 7.1 µM
EC50 ([4]; Homo sapiens, HDFa): 3.6 µM
EC50 (HUVEC [5]; Homo sapiens, HUVEC): 11 µM
Activity (HUVEC [9]): >90%
solubility [10]: 90 µM (≈ 29.2 µg/mL)

Clc1nc(-c2ccccn2)nc2ccccc12
EC50 [1]: > 100 µM
EC50 [2]: 1.5 µM
EC50 [3]: > 100 µM

CO[C@@H]1[C@H](OC(=O)NC(=O)CCl)CC[C@]2(CO2)[C@H]1[C@@]1(C)O[C@@H]1CC=C(C)C
inhibition (HUVEC [11]): Active
inhibition (HUVEC [12]): Active
inhibition (HUVEC [13]): inactive
inhibition [14]: inactive

Cc1nc(-c2ccccn2)nc(NCCNc2ccc(C(F)(F)F)cn2)c1Cl
EC50 (HeLa [8]; Homo sapiens, HeLa): 10 µM
EC50 ([4]; Homo sapiens, HDFa): 1.9 µM
EC50 (HUVEC [5]; Homo sapiens, HUVEC): 4.3 µM
solubility [10]: 40 µM (≈ 16.4 µg/mL)

c1ccc(-c2ccccn2)nc1
EC50 ([4]; Homo sapiens, HDFa): 10 µM
Activity [15]: 94%
Activity (HDFa): inactive

CCCCCCCCCCCCCC(=O)O[C@H]1CC[C@H](NC(=O)[C@H](OC)[C@H](O)[C@@H](O)[C@H](O)/C=C/C(C)C)C(=O)NC1
Ratio (HEK293): 2.1
Ratio (HeLa [16]): 2.3
Ratio (E6-1): 1.4
inhibition (HUVEC [17]): Active
Ratio (Homo sapiens): 8.1
inhibition (HUVEC [12]): Active
inhibition (HUVEC [13]): inactive

CCCCCCCCCCCCCC(=O)O[C@H]1CC[C@H](NC(=O)[C@H](OC)[C@H](O)[C@@H](O)[C@H](O)/C=C/C(C)C)C(=O)N(C)C1
Ratio (MCF7): 2.6
Ratio (PC-3): 2.1

c1ccc(-c2cc(N3CCOCC3)c3ccccc3n2)nc1
EC50 [1]: > 100 µM
EC50 [2]: 0.41 µM
EC50 [3]: > 100 µM

c1ccc(NCCNc2nc(-c3ccccn3)nc3ccccc23)cc1
EC50 [1]: > 300 µM
EC50 [2]: 1.6 µM
EC50 [3]: > 100 µM

c1ccc(-c2cc(N3CCCCC3)c3ccccc3n2)nc1
EC50 [1]: > 100 µM
EC50 [2]: 0.39 µM
EC50 [3]: > 100 µM

c1ccc(-c2nc(N3CCOCC3)c3ccccc3n2)nc1
EC50 [1]: > 100 µM
EC50 [2]: 0.049 µM
EC50 [3]: 41 µM

Cc1nc(-c2ccc(Cl)cn2)nc(NC[C@@H](NCCCCc2ccccc2)c2ccccc2)c1Cl
EC50 (HeLa [8]; Homo sapiens, HeLa): 0.97 µM
EC50 ([4]; Homo sapiens, HDFa): 0.76 µM
Activity (HUVEC [18]): Toxic
solubility [10]: 40 µM (≈ 20.3 µg/mL)
